Test results published in patent publication US20250205233A1, “EPIDERMAL GROWTH FACTOR RECEPTOR (EGFR) TYROSINE KINASE INHIBITORS IN COMBINATION WITH AN AKT INHIBITOR FOR THE TREATMENT OF CANCER” (AstraZeneca AB, priority 2022, published 2025).
“Also recorded” adds a separate entry of the source. Read-outs that look alike come from different tables or passages of the source.

Columns and labels:
PC9 PIK3CA^H1047R cells = conditions: osimertinib alone
PC9-PIK3CAm cells = experiment: Clonogenic assay; assay type: cell-based, human; conditions: osimertinib 160 nM, 8 days, crystal violet
Source text: Cells were stained with Crystal violet at the end of the treatment (8 days) and cell density (% surface) quantified by ImageJ.

PC9 PTEN^KO cells = experiment: Clonogenic assay (long term); assay type: cell-based, human; conditions: 160 nM osimertinib
HCC-827 PTEN^KO cells = assay type: cell-based, human
PC9 PTEN^KO xenograft = experiment: Xenograft model, tumour volume; assay type: in vivo, NOD/SCID mice
Description: (§1) e) PC9 PTEN-KO and HCC827 PTEN-KO cell lines were cultured in RPMI1640 supplemented with 10% FCS and cultured in a humidified incubator with 5% CO2 at 37° C. PC9 PTEN-KO and HCC827 PTEN-KO xenografts were established by subcutaneous implantation of 5×10^6, cells per animal, in 100 μL of cell suspension including 50% matrigel, into the flank of female NOD/SCID and nude mice respectively. All mice were older than 6 weeks at the time of cell implant. Tumour growth was monitored twice weekly by bilateral calliper measurements and tumour volume calculated using the formula TV (mm3)=[length (mm)×width (mm)2]×0.5, where the length and the width are the longest and the shortest diameters of the tumour.

[1] = tested on: P-EGFR, MAPK signalling, P-AKT and P-S6 in PC9-PIK3CAm cells; experiment: Intracellular changes by WB analysis; assay type: cell-based, human; conditions: 4 h
[2] = tested on: HCC-827 PTEN^KO xenograft; conditions: mouse
Description: as §1

[3] = tested on: PIK3CA H1047R and PIK3CA E453K-positive cells; experiment: Osimertinib selection of CRISPR knock-in cell pools, DNA sequencing; assay type: cell-based, human; conditions: osimertinib (100 nM) for 3 weeks; NGS and SANGER sequencing
Source text: As the efficiency of knock-ins using this technology is usually low, only a small proportion of cells was expected to be genetically modified, thus mimicking the emergence of a co-occurring resistance mutation in a tumour.

[4] = tested on: p-S6 in PC9 PTEN^KO cells; experiment: Intracellular changes by WB analysis; assay type: cell-based, human; conditions: treated for 3 weeks with osimertinib 160 nM

## C=CC(=O)Nc1cc(Nc2nccc(-c3cn(C)c4ccccc34)n2)c(OC)cc1N(C)CCN(C)C [osimertinib, N-(2-{2-dimethylaminoethyl-methylamino}-4-methoxy-5-{[4-(1-methylindol-3-yl)pyrimidin-2-yl]amino}phenyl)prop-2-enamide]
PC9 PIK3CA^H1047R cells
  osimertinib-induced apoptotic response (caspase 3/7 activation) compared to parental PC9: diminished apoptotic response
PC9 PIK3CA^H1047R cells; listed as Osimertinib
  osimertinib-induced apoptotic response (caspase 3/7 activation) compared to parental PC9: Diminished apoptotic response
PC9-PIK3CAm cells
  clonogenic growth (cell density): resistance to osimertinib compared to parental PC9: developed resistance
PC9 PTEN^KO cells
  cell density higher than parental PC9 cells: 2 ×
PC9 PTEN^KO cells; 3 or 5 weeks
  clonogenic growth: resistance to osimertinib compared to parental cells: milder resistance phenotype; also recorded: develop resistance
HCC-827 PTEN^KO cells
  clonogenic growth: resistance to osimertinib compared to parental cells: resulted in osimertinib resistance; also recorded: develop resistance
HCC-827 PTEN^KO cells; 160 nM osimertinib, after 3 weeks
  cell density (% surface) higher than parental HCC-827: 20 X
PC9 PTEN^KO xenograft
  degree of resistance to Osimertinib in vivo: at best very modest
[1]; 160 nM osimertinib alone, PC9-PIK3CAm cells
  levels of P-AKT and P-S6 (western blot): refractory
[1]; 160 nM osimertinib, parental and PC9-PIK3CAm cells
  P-EGFR levels and MAPK signalling (western blot): downregulation of P-EGFR levels and MAPK signalling
[2]
  degree of resistance to Osimertinib in vivo: at best very modest
[3]
  outgrowth of PIK3CA-mutant cells under osimertinib selection: conferred resistance
[4]
  p-S6 levels (western blot): persistent p-S6 levels
